What was measured:
Everolimus = compound: CO[C@H]1C[C@@H]2CC[C@@H](C)[C@@](O)(O2)C(=O)C(=O)N2CCCC[C@H]2C(=O)O[C@H]([C@H](C)C[C@@H]2CC[C@@H](OCCO)[C@H](OC)C2)CC(=O)[C@H](C)/C=C(\C)[C@@H](O)[C@@H](OC)C(=O)[C@H](C)C[C@H](C)/C=C/C=C/C=C/1C [Everolimus]
[1] = compound: COc1cccc(OCCCN)c1-c1cc(Nc2cnc(C#N)cn2)n[nH]1
YKL-5-124 [2] = compound: T1, C=CC(=O)Nc1ccc(C(=O)Nc2[nH]nc3c2CN(C(=O)N[C@H](CN(C)C)c2ccccc2)C3(C)C)cc1 [YKL-5-124]; test: increase in dead-cell fraction, 72 h; higher = more death;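 further: breast cancer cell lines in 384-well plates, stained with Hoechst plus LIVE/DEAD far red dye and imaged, cells above an LDR intensity threshold counted dead, Hoechst-negative corpses included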
THZ531 = compound: CN(C)C/C=C/C(=O)Nc1ccc(C(=O)N2CCC[C@@H](Nc3ncc(Cl)c(-c4c[nH]c5ccccc45)n3)C2)cc1 [THZ531]; test: as above
YKL-5-124 [3] = compound: T1, YKL-5-124
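Wherever GR50, 72 h is given: breast cancer and non-malignant breast epithelial cell lines, Deep Dye Drop or Dye Drop imaging, nine half-log doses, GR normalized to time-zero plates and DMSO-only controls.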

SUM44PE
GR50, 72 h (Everolimus): < 0.001 µM | GR50, 72 h [1]: 0.000342 µM | increase in dead-cell fraction (YKL-5-124 [2]; 0.001 µM): 0.376 | increase in dead-cell fraction (YKL-5-124 [2]; 0.003162 µM): 0.0121 | increase in dead-cell fraction (YKL-5-124 [2]; 0.01 µM): 0.0391 | increase in dead-cell fraction (YKL-5-124 [2]; 0.03162 µM): 0.053 | increase in dead-cell fraction (YKL-5-124 [2]; 0.1 µM): 0.0951 | increase in dead-cell fraction (YKL-5-124 [2]; 0.3162 µM): 0.0965 | increase in dead-cell fraction (YKL-5-124 [2]; 1 µM): 0.127 | increase in dead-cell fraction (YKL-5-124 [2]; 3.162 µM): 0.447 | increase in dead-cell fraction (THZ531; 0.0001 µM): -0.0163 | increase in dead-cell fraction (THZ531; 0.0003162 µM): -0.0027 | increase in dead-cell fraction (THZ531; 0.001 µM): 0.0202 | increase in dead-cell fraction (THZ531; 0.003162 µM): -0.008 | increase in dead-cell fraction (THZ531; 0.01 µM): -0.0392 | increase in dead-cell fraction (THZ531; 0.03162 µM): -0.0411 | increase in dead-cell fraction (THZ531; 0.1 µM): 0.0916

HCC1187
GR50, 72 h (Everolimus): > 10 µM | increase in dead-cell fraction (YKL-5-124 [2]; 0.001 µM): 0.0446 | increase in dead-cell fraction (YKL-5-124 [2]; 0.003162 µM): 0.0713 | increase in dead-cell fraction (YKL-5-124 [2]; 0.01 µM): 0.133 | increase in dead-cell fraction (YKL-5-124 [2]; 0.03162 µM): 0.0654 | increase in dead-cell fraction (YKL-5-124 [2]; 0.1 µM): 0.0694 | increase in dead-cell fraction (YKL-5-124 [2]; 0.3162 µM): 0.0946 | increase in dead-cell fraction (YKL-5-124 [2]; 1 µM): 0.164 | increase in dead-cell fraction (YKL-5-124 [2]; 3.162 µM): 0.17 | increase in dead-cell fraction (YKL-5-124 [2]; 10 µM): 0.406 | increase in dead-cell fraction (THZ531; 0.0001 µM): 0.0118 | increase in dead-cell fraction (THZ531; 0.0003162 µM): -0.0088 | increase in dead-cell fraction (THZ531; 0.001 µM): -0.0009 | increase in dead-cell fraction (THZ531; 0.003162 µM): -0.0126 | increase in dead-cell fraction (THZ531; 0.01 µM): -0.0087 | increase in dead-cell fraction (THZ531; 0.03162 µM): -0.0107 | increase in dead-cell fraction (THZ531; 0.1 µM): 0.36 | increase in dead-cell fraction (THZ531; 0.3162 µM): 0.611

SUM185PE
GR50, 72 h (YKL-5-124 [3]): 0.0819 µM | GR50, 72 h (Everolimus): > 10 µM | increase in dead-cell fraction (YKL-5-124 [2]; 0.001 µM): 0.0052 | increase in dead-cell fraction (YKL-5-124 [2]; 0.003162 µM): 0.0479 | increase in dead-cell fraction (YKL-5-124 [2]; 0.01 µM): 0.037 | increase in dead-cell fraction (YKL-5-124 [2]; 0.03162 µM): 0.0467 | increase in dead-cell fraction (YKL-5-124 [2]; 0.1 µM): 0.0495 | increase in dead-cell fraction (YKL-5-124 [2]; 0.3162 µM): 0.0156 | increase in dead-cell fraction (YKL-5-124 [2]; 1 µM): 0.067 | increase in dead-cell fraction (YKL-5-124 [2]; 3.162 µM): 0.121 | increase in dead-cell fraction (YKL-5-124 [2]; 10 µM): 0.148 | increase in dead-cell fraction (THZ531; 0.0001 µM): 0.0141 | increase in dead-cell fraction (THZ531; 0.0003162 µM): 0.0051 | increase in dead-cell fraction (THZ531; 0.001 µM): -0.0125 | increase in dead-cell fraction (THZ531; 0.003162 µM): -0.0076 | increase in dead-cell fraction (THZ531; 0.01 µM): -0.0143 | increase in dead-cell fraction (THZ531; 0.03162 µM): -0.0254 | increase in dead-cell fraction (THZ531; 0.1 µM): 0.0083 | increase in dead-cell fraction (THZ531; 0.3162 µM): 0.278 | increase in dead-cell fraction (THZ531; 1 µM): 0.139

MGH312
GR50, 72 h (YKL-5-124 [3]): 0.00434 µM | GR50, 72 h (Everolimus): < 0.001 µM | increase in dead-cell fraction (YKL-5-124 [2]; 0.001 µM): 0.0188 | increase in dead-cell fraction (YKL-5-124 [2]; 0.003162 µM): 0.0332 | increase in dead-cell fraction (YKL-5-124 [2]; 0.01 µM): 0.0482 | increase in dead-cell fraction (YKL-5-124 [2]; 0.03162 µM): 0.0591 | increase in dead-cell fraction (YKL-5-124 [2]; 0.1 µM): 0.0669 | increase in dead-cell fraction (YKL-5-124 [2]; 0.3162 µM): 0.0808 | increase in dead-cell fraction (YKL-5-124 [2]; 1 µM): 0.0821 | increase in dead-cell fraction (YKL-5-124 [2]; 3.162 µM): 0.15 | increase in dead-cell fraction (YKL-5-124 [2]; 10 µM): 0.61 | increase in dead-cell fraction (THZ531; 0.0001 µM): -0.0016 | increase in dead-cell fraction (THZ531; 0.0003162 µM): 0.006 | increase in dead-cell fraction (THZ531; 0.001 µM): 0.0097 | increase in dead-cell fraction (THZ531; 0.003162 µM): 0.002 | increase in dead-cell fraction (THZ531; 0.01 µM): -0.0045 | increase in dead-cell fraction (THZ531; 0.03162 µM): 0.0455 | increase in dead-cell fraction (THZ531; 0.1 µM): 0.662 | increase in dead-cell fraction (THZ531; 0.3162 µM): 0.72 | increase in dead-cell fraction (THZ531; 1 µM): 0.639

ZR7530
increase in dead-cell fraction (YKL-5-124 [2]; 0.001 µM): 0.039 | increase in dead-cell fraction (YKL-5-124 [2]; 0.003162 µM): 0.0535 | increase in dead-cell fraction (YKL-5-124 [2]; 0.01 µM): 0.0595 | increase in dead-cell fraction (YKL-5-124 [2]; 0.03162 µM): 0.0181 | increase in dead-cell fraction (YKL-5-124 [2]; 0.1 µM): 0.0418 | increase in dead-cell fraction (YKL-5-124 [2]; 0.3162 µM): 0.04 | increase in dead-cell fraction (YKL-5-124 [2]; 1 µM): 0.0587 | increase in dead-cell fraction (YKL-5-124 [2]; 3.162 µM): 0.0125 | increase in dead-cell fraction (YKL-5-124 [2]; 10 µM): 0.105 | increase in dead-cell fraction (THZ531; 0.0001 µM): 0.0074 | increase in dead-cell fraction (THZ531; 0.0003162 µM): 0.0167 | increase in dead-cell fraction (THZ531; 0.001 µM): 0.0003 | increase in dead-cell fraction (THZ531; 0.003162 µM): 0.0105 | increase in dead-cell fraction (THZ531; 0.01 µM): -0.0154 | increase in dead-cell fraction (THZ531; 0.03162 µM): -0.0168 | increase in dead-cell fraction (THZ531; 0.1 µM): 0.129 | increase in dead-cell fraction (THZ531; 0.3162 µM): 0.234 | increase in dead-cell fraction (THZ531; 1 µM): 0.0722

PDX1206
GR50, 72 h (YKL-5-124 [3]): 0.0811 µM | GR50, 72 h [1]: 0.00357 µM | increase in dead-cell fraction (YKL-5-124 [2]; 0.001 µM): -0.009 | increase in dead-cell fraction (YKL-5-124 [2]; 0.003162 µM): -0.0048 | increase in dead-cell fraction (YKL-5-124 [2]; 0.01 µM): 0.0238 | increase in dead-cell fraction (YKL-5-124 [2]; 0.03162 µM): 0.0116 | increase in dead-cell fraction (YKL-5-124 [2]; 0.1 µM): 0.0307 | increase in dead-cell fraction (YKL-5-124 [2]; 0.3162 µM): 0.0443 | increase in dead-cell fraction (YKL-5-124 [2]; 1 µM): 0.0358 | increase in dead-cell fraction (YKL-5-124 [2]; 3.162 µM): 0.0858 | increase in dead-cell fraction (YKL-5-124 [2]; 10 µM): 0.484 | increase in dead-cell fraction (THZ531; 0.0001 µM): -0.0011 | increase in dead-cell fraction (THZ531; 0.0003162 µM): 0.0053 | increase in dead-cell fraction (THZ531; 0.001 µM): -0.0065 | increase in dead-cell fraction (THZ531; 0.003162 µM): -0.0032 | increase in dead-cell fraction (THZ531; 0.01 µM): -0.0015 | increase in dead-cell fraction (THZ531; 0.03162 µM): -0.0072 | increase in dead-cell fraction (THZ531; 0.1 µM): 0.347 | increase in dead-cell fraction (THZ531; 0.3162 µM): 0.257 | increase in dead-cell fraction (THZ531; 1 µM): 0.344

MDAMB415
GR50, 72 h (YKL-5-124 [3]): 0.00409 µM | increase in dead-cell fraction (YKL-5-124 [2]; 0.001 µM): 0.0047 | increase in dead-cell fraction (YKL-5-124 [2]; 0.003162 µM): -0.0002 | increase in dead-cell fraction (YKL-5-124 [2]; 0.01 µM): 0.0066 | increase in dead-cell fraction (YKL-5-124 [2]; 0.03162 µM): 0.0051 | increase in dead-cell fraction (YKL-5-124 [2]; 0.1 µM): 0.0109 | increase in dead-cell fraction (YKL-5-124 [2]; 0.3162 µM): 0.0176 | increase in dead-cell fraction (YKL-5-124 [2]; 1 µM): 0.0019 | increase in dead-cell fraction (YKL-5-124 [2]; 3.162 µM): 0.0153 | increase in dead-cell fraction (YKL-5-124 [2]; 10 µM): 0.0261 | increase in dead-cell fraction (THZ531; 0.0001 µM): 0.003 | increase in dead-cell fraction (THZ531; 0.0003162 µM): 0.0003 | increase in dead-cell fraction (THZ531; 0.001 µM): 0.0038 | increase in dead-cell fraction (THZ531; 0.003162 µM): 0.0023 | increase in dead-cell fraction (THZ531; 0.01 µM): 0.0067 | increase in dead-cell fraction (THZ531; 0.03162 µM): 0.0049 | increase in dead-cell fraction (THZ531; 0.1 µM): 0.0372 | increase in dead-cell fraction (THZ531; 0.3162 µM): 0.104 | increase in dead-cell fraction (THZ531; 1 µM): 0.104

MDAMB175VII
GR50, 72 h (Everolimus): < 0.001 µM | GR50, 72 h [1]: 0.0266 µM | increase in dead-cell fraction (YKL-5-124 [2]; 0.001 µM): 0.0167 | increase in dead-cell fraction (YKL-5-124 [2]; 0.003162 µM): 0.0032 | increase in dead-cell fraction (YKL-5-124 [2]; 0.01 µM): 0.0173 | increase in dead-cell fraction (YKL-5-124 [2]; 0.03162 µM): 0.0139 | increase in dead-cell fraction (YKL-5-124 [2]; 0.1 µM): 0.0095 | increase in dead-cell fraction (YKL-5-124 [2]; 0.3162 µM): 0.0149 | increase in dead-cell fraction (YKL-5-124 [2]; 1 µM): 0.0069 | increase in dead-cell fraction (YKL-5-124 [2]; 3.162 µM): 0.0133 | increase in dead-cell fraction (YKL-5-124 [2]; 10 µM): 0.285 | increase in dead-cell fraction (THZ531; 0.0001 µM): 0.0053 | increase in dead-cell fraction (THZ531; 0.0003162 µM): 0.0019 | increase in dead-cell fraction (THZ531; 0.001 µM): 0.0075 | increase in dead-cell fraction (THZ531; 0.003162 µM): 0.0041 | increase in dead-cell fraction (THZ531; 0.01 µM): 0.0043 | increase in dead-cell fraction (THZ531; 0.03162 µM): 0.0033 | increase in dead-cell fraction (THZ531; 0.1 µM): 0.105 | increase in dead-cell fraction (THZ531; 0.3162 µM): 0.231 | increase in dead-cell fraction (THZ531; 1 µM): 0.0668

— the supplement of paper PMC9663587
